Type in all cases: in vivo
Experiment [1] relates to Solanum nigrum (SOLNI). Put plainly: Post-emergence biological efficacy, glasshouse pot test. Particulars: 312 h. Summed up: (§1)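 Plants were sown in standard soil and grown 8 days in a glasshouse (24/16° C. day/night, 14 hours light, 65% humidity), then sprayed post-emergence at 1000 or 250 g/ha from acetone/water (50:50) with 0.5% Tween 20. Damage was scored visually after 13 days (0 = none, 100 = total).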

Experiment [2] deals with Setaria faberi (SETFA). The description is as above. Particulars: 312 h. Summed up:
as §1

Experiment [3] relates to Amaranthus retoflexus (AMARE). Described as above. The conditions noted are these: Amaranthus retroflexus, 312 h. Summed up:
as §1

Experiment [4] deals with Alopecurus myosuroides (ALOMY). Described as above. Particulars: 312 h. Summed up: as §1
In experiment [5] the test system is Echinochloa crus-galli (ECHCG). Described as above. Particulars: 312 h. Summed up: as §1
The subject of experiment [6] is Ipomea hederaceae (IPOHE). The description is as above. Particulars: Ipomoea hederacea, 312 h. Summed up: as §1
The test system of experiment [7] is Solanum nigrum (SOLNI). Put plainly: Pre-emergence biological efficacy, glasshouse pot test. The conditions noted are these: 312 h. Summed up: (§2)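 Test compound, formulated in acetone/water (50:50) containing 0.5% Tween 20 and diluted into an aqueous spray, was applied at 1000 or 250 g/ha to pots sown one day earlier. Injury was rated after 13 days, 100 meaning total damage.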

The subject of experiment [8] is Setaria faberi (SETFA). Described as above. Particulars: 312 h. Summed up:
as §2

In experiment [9] the test system is Amaranthus retoflexus (AMARE). The description is as above. The conditions noted are these: Amaranthus retroflexus, 312 h. Summed up: as §2
In experiment [10] the test system is Alopecurus myosuroides (ALOMY). Described as above. Particulars: 312 h. Summed up:
as §2

Experiment [11] relates to Echinochloa crus-galli (ECHCG). The description is as above. Particulars: 312 h. Summed up:
as §2

Experiment [12] deals with Ipomea hederaceae (IPOHE). The experiment is described as above. The conditions noted are these: Ipomoea hederacea, 312 h. Summed up:
as §2

Setting [13] is: post-emergence, 1,000 g/ha, evaluated after 13 days (100=total damage; 0=no damage), read-out: Percentage damage caused to weed species, SOLNI.
The mark [14] stands for this setting: post-emergence, 1,000 g/ha, evaluated after 13 days (100=total damage; 0=no damage), read-out: Percentage damage caused to weed species, SETFA.
[15] abbreviates: post-emergence, 1,000 g/ha, evaluated after 13 days (100=total damage; 0=no damage), read-out: Percentage damage caused to weed species, AMARE.
[16] abbreviates: post-emergence, 1,000 g/ha, evaluated after 13 days (100=total damage; 0=no damage), read-out: Percentage damage caused to weed species, ALOMY.
Setting [17] is: post-emergence, 1,000 g/ha, evaluated after 13 days (100=total damage; 0=no damage), read-out: Percentage damage caused to weed species, ECHCG.
Where [18] appears, read: post-emergence, 1,000 g/ha, evaluated after 13 days (100=total damage; 0=no damage), read-out: Percentage damage caused to weed species, IPOHE.
[19] abbreviates: pre-emergence, 1,000 g/ha, evaluated after 13 days (100=total damage; 0=no damage), read-out: Percentage damage SOLNI.
[20] abbreviates: pre-emergence, 1,000 g/ha, evaluated after 13 days (100=total damage; 0=no damage), read-out: Percentage damage SETFA.
The mark [21] stands for this setting: pre-emergence, 1,000 g/ha, evaluated after 13 days (100=total damage; 0=no damage), read-out: Percentage damage AMARE.
Where [22] appears, read: pre-emergence, 1,000 g/ha, evaluated after 13 days (100=total damage; 0=no damage), read-out: Percentage damage ALOMY.
Setting [23] is: pre-emergence, 1,000 g/ha, evaluated after 13 days (100=total damage; 0=no damage), read-out: Percentage damage ECHCG.
The mark [24] stands for this setting: pre-emergence, 1,000 g/ha, evaluated after 13 days (100=total damage; 0=no damage), read-out: Percentage damage IPOHE.

For the molecule `COC(=O)c1nc(C2CC2)nc(NCC(O)c2ccccc2)c1Cl` (stereo not drawn) [Compound 4-257, 5-Chloro-2-cyclopropyl-4-(2-hydroxy-2-phenyl-ethylamino)-6-methoxycarbonyl-pyrimidine], the pest or weed control at 1000 g/ha with Solanum nigrum (SOLNI) [1] (setting [13]) worked out at 90%; in the experiment on Setaria faberi (SETFA) [2] (setting [14]), 80%; in experiment [3] (setting [15]) it was 100%; in experiment [4] (setting [16]), 60%; in experiment [5] (setting [17]), 70%; in experiment [6] (setting [18]), 100%. Further, the pest or weed control at 1000 g/ha was found to be 90% with Solanum nigrum (SOLNI) [7] (setting [19]); 80% in the experiment on Setaria faberi (SETFA) [8] (setting [20]); 100% in [9] (setting [21]); 40% in experiment [10] (setting [22]); 60% in experiment [11] (setting [23]); 100% in experiment [12] (setting [24]).
Regarding `COC(=O)c1nc(C2CC2)nc(NCCNc2ccccc2)c1Cl` [Compound 4-260, 5-Chloro-2-cyclopropyl-6-methoxycarbonyl-4-[2-(phenylamino)-ethylamino)-pyrimidine], the pest or weed control at 1000 g/ha came to 80% with Solanum nigrum (SOLNI) [1] (setting [13]); 60% in the experiment on Setaria faberi (SETFA) [2] (setting [14]); 100% in experiment [3] (setting [15]); 20% in experiment [4] (setting [16]); 40% in experiment [5] (setting [17]); 100% in experiment [6] (setting [18]). Besides, the pest or weed control at 1000 g/ha is 90% with Solanum nigrum (SOLNI) [7] (setting [19]); 20% in the experiment on Setaria faberi (SETFA) [8] (setting [20]); 100% in experiment [9] (setting [21]); 10% in experiment [10] (setting [22]); 20% in [11] (setting [23]); 90% in experiment [12] (setting [24]).
As for `COC(=O)c1nc(C2CC2)nc(NCc2c(F)ccc(F)c2F)c1Cl` [Compound 4-118, 5-Chloro-2-cyclopropyl-6-methoxycarbonyl-4-(2,3,6-trifluoro-phenylmethyl-amino)pyrimidine], the pest or weed control at 1000 g/ha in the experiment with Solanum nigrum (SOLNI) [1] (setting [13]) turned out to be 80%; with Setaria faberi (SETFA) [2] (setting [14]), 80%; in [3] (setting [15]), 100%; in experiment [4] (setting [16]), 60%; in [5] (setting [17]), 80%; in [6] (setting [18]), 90%. Also, the pest or weed control at 1000 g/ha is 40% in the experiment with Solanum nigrum (SOLNI) [7] (setting [19]); 0% in the experiment with Setaria faberi (SETFA) [8] (setting [20]); 40% in experiment [9] (setting [21]); 20% in experiment [10] (setting [22]); 50% in [11] (setting [23]); 70% in experiment [12] (setting [24]).
In the case of `COC(=O)c1nc(C2CC2)nc(NC(CS(C)(=O)=O)c2ccc(OC)cc2)c1Cl` (stereo not drawn) [Compound 4-205, 5-Chloro-2-cyclopropyl-6-methoxycarbonyl-4-[1-(4-methoxy-phenyl)-2-methylsulphonyl-ethylamino]-pyrimidine], the pest or weed control at 1000 g/ha in the experiment on Solanum nigrum (SOLNI) [1] (setting [13]) worked out at 10%; in the experiment on Setaria faberi (SETFA) [2] (setting [14]) it was 0%; in experiment [3] (setting [15]) it was 20%; in experiment [4] (setting [16]), 0%; in experiment [5] (setting [17]), 0%; in experiment [6] (setting [18]), 20%. In addition, the pest or weed control at 1000 g/ha (in the experiment with Solanum nigrum (SOLNI) [7] (setting [19]); in the experiment on Setaria faberi (SETFA) [8] (setting [20]); in experiment [9] (setting [21]); in [10] (setting [22]); in experiment [11] (setting [23]); in experiment [12] (setting [24])) was 0% in each case.
Consider `COC(=O)c1nc(-c2ccc(Cl)c(OC)c2)nc(NCc2ccco2)c1Cl` [Compound 229-48, 5-Chloro-2-(4-chloro-3-methoxyphenyl)-4-(furan-2-ylmethyl-amino)-6-methoxy-carbonylpyrimidine], for which the pest or weed control at 1000 g/ha in the experiment with Solanum nigrum (SOLNI) [1] (Rate 1,000 g/ha, post-emergence spray, evaluated after 13 days (100=total damage to plant; 0=no damage to plant), read-out: Percentage damage caused to weed species, post-emergence, SOLNI) turned out to be 80%; with Setaria faberi (SETFA) [2] (Rate 1,000 g/ha, post-emergence spray, evaluated after 13 days (100=total damage to plant; 0=no damage to plant), read-out: Percentage damage caused to weed species, post-emergence, SETFA), 60%; in experiment [3] (Rate 1,000 g/ha, post-emergence spray, evaluated after 13 days (100=total damage to plant; 0=no damage to plant), read-out: Percentage damage caused to weed species, post-emergence, AMARE), 100%; in experiment [4] (Rate 1,000 g/ha, post-emergence spray, evaluated after 13 days (100=total damage to plant; 0=no damage to plant), read-out: Percentage damage caused to weed species, post-emergence, ALOMY), 10%; in experiment [5] (Rate 1,000 g/ha, post-emergence spray, evaluated after 13 days (100=total damage to plant; 0=no damage to plant), read-out: Percentage damage caused to weed species, post-emergence, ECHCG), 30%; in experiment [6] (Rate 1,000 g/ha, post-emergence spray, evaluated after 13 days (100=total damage to plant; 0=no damage to plant), read-out: Percentage damage caused to weed species, post-emergence, IPOHE) it was 30%. The pest or weed control at 1000 g/ha in the experiment on Solanum nigrum (SOLNI) [7] (pre-emergence, rate 1,000 g/ha, evaluated after 13 days (100=total damage to plant; 0=no damage), read-out: Percentage damage caused to weed species, SOLNI) was determined as 90%; in the experiment on Setaria faberi (SETFA) [8] (pre-emergence, rate 1,000 g/ha, evaluated after 13 days (100=total damage to plant; 0=no damage), read-out: Percentage damage caused to weed species, SETFA), 30%; in [9] (pre-emergence, rate 1,000 g/ha, evaluated after 13 days (100=total damage to plant; 0=no damage), read-out: Percentage damage caused to weed species, AMARE), 100%; in experiment [10] (pre-emergence, rate 1,000 g/ha, evaluated after 13 days (100=total damage to plant; 0=no damage), read-out: Percentage damage caused to weed species, ALOMY), 10%; in [11] (pre-emergence, rate 1,000 g/ha, evaluated after 13 days (100=total damage to plant; 0=no damage), read-out: Percentage damage caused to weed species, ECHCG), 0%; in [12] (pre-emergence, rate 1,000 g/ha, evaluated after 13 days (100=total damage to plant; 0=no damage), read-out: Percentage damage caused to weed species, IPOHE), 0%.
Consider `COC(=O)c1nc(C2CC2)nc(NCc2cc3cc(Br)ccc3o2)c1Cl` [Compound 4-164, 4-(5-Bromo-benzofuran-2-yl)methylamino-5-chloro-2-cyclopropyl-6-methoxycarbonyl-pyrimidine], for which the pest or weed control at 1000 g/ha in the experiment on Solanum nigrum (SOLNI) [1] (setting [13]) worked out at 100%; in the experiment with Setaria faberi (SETFA) [2] (setting [14]), 70%; in experiment [3] (setting [15]) it was 100%; in experiment [4] (setting [16]), 30%; in [5] (setting [17]), 60%; in [6] (setting [18]) it was 80%. In addition, the pest or weed control at 1000 g/ha was found to be 50% in the experiment on Solanum nigrum (SOLNI) [7] (setting [19]); 30% in the experiment with Setaria faberi (SETFA) [8] (setting [20]); 50% in [9] (setting [21]); 30% in experiment [10] (setting [22]); 30% in [11] (setting [23]); 100% in experiment [12] (setting [24]).
In the case of `COC(=O)c1nc(C2CC2)nc(NC2(c3ccc(Cl)cc3)CC2)c1Cl` [Compound 4-5, 5-Chloro-4-[1-(4-chlorophenyl)cyclo-propylamino]-2-cyclopropyl-6-methoxycarbonyl-pyrimidine], the pest or weed control at 1000 g/ha in the experiment with Solanum nigrum (SOLNI) [1] (setting [13]) came to 80%; in the experiment on Setaria faberi (SETFA) [2] (setting [14]) it was 40%; in experiment [3] (setting [15]), 100%; in experiment [4] (setting [16]), 20%; in experiment [5] (setting [17]), 0%; in experiment [6] (setting [18]), 70%. Besides, the pest or weed control at 1000 g/ha is 0% in the experiment on Solanum nigrum (SOLNI) [7] (setting [19]); 0% in the experiment with Setaria faberi (SETFA) [8] (setting [20]); 40% in experiment [9] (setting [21]); 0% in [10] (setting [22]); 0% in experiment [11] (setting [23]); 40% in [12] (setting [24]).

The values above are taken from patent US20110086759A1, “CHEMICAL COMPOUNDS” (SYNGENTA CROP PROTECTION, INC., priority 2007, published 2011).
